Data published in patent publication US12600732B2, “Bifunctional compounds for degrading BTK via ubiquitin proteosome pathway” (NURIX THERAPEUTICS, INC., priority 2019, dated 2026).
Read-outs that look alike come from different tables or passages of the source.

Assays:
[1] = target: T1, BTK (Mus musculus, UniProt P35991); assay: In vivo degradation of BTK in mouse PD experiments with oral dosing; conditions: 24 h
T1 construct: from tissue; host or cells: mouse blood B cells / splenocytes (CD-1 or BALB/c)
Method in brief: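 CD-1 or BALB/c mice dosed by oral gavage, screens at 90 mg/kg for 6 h, later at lower doses/longer times. Blood or splenocyte BTK measured by intracellular flow cytometry (or HTRF); % degradation from B-cell minus T-cell BTK geometric MFI, relative to vehicle.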

[2] = target: BTK C481S (Homo sapiens, UniProt Q06187, C481S); assay: BTK degradation (Total BTK HTRF) in TMD8 cells expressing BTK-C481S; format: cell-based; set-up: endogenous in cells; host or cells: TMD8 BTK-C481S (clone2C3), Cas9 RNP knock-in; conditions: TMD8 BTK-C481S (clone2C3) cells, treatment time 4 h
Experimental: BTK levels were determined using Cisbio Total-BTK HTRF (Homologous Time-Resolved Fluorescence) kit (63ADK064PEG) according to the manufacturer's protocol. Briefly, cells were incubated in 1× supplied lysis buffer for 30 minutes. In an opaque white low volume 96-well plate (Cisbio, 66PL96005), cell lysate was combined with two different specific BTK antibodies, one conjugated with Eu^3+-Cryptate FRET donor and one conjugated with d2 FRET acceptor. Assay controls include wells containing cell lysate with only the Eu^3+-Cryptate FRET donor antibody and wells containing both HTRF antibodies and lysis buffer without cells or control lysate provided by Cisbio. HTRF ratio was calculated as (acceptor signal at 665 nm/donor signal at 620 nm)×10^4. Background HTRF levels were determined from the control well containing the donor, but no acceptor, antibody. Background HTRF levels were subtracted from all samples. Readouts were reported as HTRF levels relative to HTRF levels of DMSO-treated cells. Four-parameter non-linear regressions were performed in GraphPad Prism 7.02 to obtain DC50 values.
BTK Degradation (Total BTK HTRF) at Four Hours in TMD8 Cells Expressing BTK-C481S
This example evaluates the potency of CTM in degrading […]. The BTK binding moieties utilized in CTMs bind to the BTK active site. This example evaluates whether the active site mutation C481S affects CTM-induced degradation of BTK.

[3] = test system: B cell receptor (BCR) signaling; assay: B cell activation assay (flow cytometry), mouse B cells; format: cell-based; conditions: treatment 4 h, IgM stimulation 18 h
Experimental: Compound was present throughout the stimulation. Cells were stained with Live/Dead dye (Fisher L34976) and then fluorophore-conjugated antibodies against CD20 (Biolegend 302330), CD3 (BD Pharmingen 557705), CD86 (Biolegend 305416) and CD69 (Biolegend 310906). Stained cells were fixed in PFA and run on an Attune N×T Acoustic Focusing Flow Cytometer (Thermo-Fisher A29004), and data was analyzed using FlowJo (v10.5.3) and GraphPad Prism (v7.00) software. Single live lymphocytes were gated for B cells (CD20+CD3−) and T cells (CD3+CD20−), and the geometric mean fluorescence intensity (MFI) of CD86 and CD69 was calculated for each population. The MFI of the unstimulated sample was used to quantify baseline activation.
This example evaluates whether CTM treatment affects B cell receptor (BCR) signaling. BTK is activated downstream of the B cell receptor and leads to upregulation of activation markers CD86 and CD69 on the surface of B cells.

[4] = PK data for BTK CTMs (in vivo plasma concentrations); conditions: Mouse Balb/c; for Vd: read-out: Volume of Distribution
Source text: The present example evaluates in vivo plasma concentrations of BTK CTMs to develop PK-PD-efficacy relationship and predict human exposure.

[5] = test system: TMD8 cells; assay: Cell viability assay (CellTiter-Glo), TMD8 cells; conditions: for EC50: Homo sapiens, TMD8, 72 h; for EMAX (% viable cells): TMD8 cells, treatment time 72 h
Experimental: (§1) Cell viability was determined using CellTiter-Glo 2.0 Luminescent Cell Viability Assay (Promega, G9242), which quantitates the amount of ATP present as a proxy for the number of viable cells in culture. Cells were plated with densities between 2000-4000 cells per well in 96-well plates. […] CellTiter-Glo reagent was added to cells at a dilution of 1:20, and the plate was incubated ten minutes at room temperature prior to reading the luminescence signal using an EnVision plate reader. Controls included cells treated with DMSO and wells that contained no cells, only media. Background luminescence signal was determined by control wells containing no cells, only media, and was then subtracted from all sample wells. Luminescence values were then normalized to DMSO-treated wells and reported at proportion viable cells.
Here, the ability of CTMs to affect viability in BTK-dependent cell lines was assessed.

[6] = test system: TMD8 C481S cells; assay: Cell viability assay (CellTiter-Glo), TMD8 C481S cells; conditions: for EC50: Homo sapiens, TMD8, 72 h; for EMAX (% viable cells): TMD8 C481S cells, treatment time 72 h
Experimental: as §1

[7] = oral dose 30 mg/kg, splenocytes, HTRF
[8] = oral dose 30 mg/kg, blood, flow cytometry

| % BTK Remaining [1, 7] [%] | DC50 [2] [nM] | EC50 ([3]; read-out: CD69 EC50) [nM] | EC50 ([3]; read-out: CD86 EC50) [nM] | % BTK Remaining ([1]; oral dose 0.3 mg/kg, blood, flow cytometry) [%] | % BTK Remaining ([1]; oral dose 3 mg/kg, blood, flow cytometry) [%] | % BTK Remaining [1, 8] [%] | AUC ([4]; 1 mg/kg IV) [µM·h] | clearance ([4]; 1 mg/kg IV) [mL/min/kg] | Vd ([4]; 1 mg/kg IV) [L/kg] | AUC ([4]; 10 mg/kg PO) [µM·h] | bioavailability ([4]; 10 mg/kg PO) [%] | SMILES | EC50 [5] [nM] | EMAX (% viable cells) [5] [%] | EC50 [6] [nM] | EMAX (% viable cells) [6] [%] |
| --- | --- | --- | --- | --- | --- | --- | --- | --- | --- | --- | --- | --- | --- | --- | --- | --- |
| 19 | 8.1 |  |  |  |  |  |  |  |  |  |  | CN1CCN([C@@H]2CCCN(c3cnc(C(N)=O)c(Nc4ccc(C5CCN(CC6CCN(c7ccc(NC8CCC(=O)NC8=O)nc7)CC6)CC5)cc4)n3)C2)C1=O (stereo partly shown) [Compound 166] |  |  |  |  |
| 33 | 0.8 | 0.1 | 0.3 | 112 | 43 | 30 | 0.68 | 31.4 | 2.2 | 0.078 | 1 | CN1CCN([C@@H]2CCCN(c3cnc(C(N)=O)c(Nc4ccc(C5CN(CC6CCN(c7ccc8c(=O)n(C9CCC(=O)NC9=O)ccc8c7)CC6)C5)cc4)n3)C2)C1=O (stereo partly shown) [Compound 69] |  |  |  |  |
| 42 | 3.1 |  |  |  |  |  |  |  |  |  |  | NC(=O)c1ncc(N2CCC[C@H](N3CCOC3=O)C2)nc1Nc1ccc(N2CCC(C3CN(c4ccc5c(c4)C(=O)N(C4CCC(=O)NC4=O)C5=O)C3)CC2)cc1 (stereo partly shown) [Compound 70] |  |  |  |  |
|  | 8.3 |  |  |  |  | 10 |  |  |  |  |  | NC(=O)c1ncc(N2CCCCC2)nc1Nc1ccc(C2CCN(CC3CCN(c4ccc5c(=O)n(C6CCC(=O)NC6=O)ccc5c4)CC3)CC2)cc1 (stereo not shown) [Compound 133] | 6.98 | 15 | 6.83 | 9 |
| 12 | 14.5 |  |  |  |  |  |  |  |  |  |  | NC(=O)c1ncc(N2CCCCC2)nc1Nc1ccc(C2CCN(CC3CCN(c4ccc(C(=O)NC5CCC(=O)NC5=O)nc4)CC3)CC2)cc1 (stereo not shown) [Compound 182] |  |  |  |  |
| 26 | 1.2 | ~0.2 | 0.2 |  |  |  | 0.6 | 33.8 | 3.4 | 2.9 | 47 | NC(=O)c1ncc(N2CCC[C@@H](N3CCOC3=O)C2)nc1Nc1ccc(C2CCN(C[C@H]3CCN(c4ccc5c(c4)C(=O)N(C4CCC(=O)NC4=O)C5=O)C3)CC2)cc1 (stereo partly shown) [Compound 73] | 0.004 | 25 | 0.054 | 19 |

| SMILES | % BTK Remaining [1, 7] [%] | DC50 [2] [nM] | EC50 ([3]; read-out: CD69 EC50) [nM] | EC50 ([3]; read-out: CD86 EC50) [nM] | % BTK Remaining ([1]; oral dose 0.3 mg/kg, blood, flow cytometry) [%] | % BTK Remaining ([1]; oral dose 3 mg/kg, blood, flow cytometry) [%] | % BTK Remaining [1, 8] [%] | AUC ([4]; 1 mg/kg IV) [µM·h] | clearance ([4]; 1 mg/kg IV) [mL/min/kg] | Vd ([4]; 1 mg/kg IV) [L/kg] | AUC ([4]; 10 mg/kg PO) [µM·h] | bioavailability ([4]; 10 mg/kg PO) [%] | EC50 [5] [nM] | EMAX (% viable cells) [5] [%] | EC50 [6] [nM] | EMAX (% viable cells) [6] [%] |
| --- | --- | --- | --- | --- | --- | --- | --- | --- | --- | --- | --- | --- | --- | --- | --- | --- |
| CN1CCN([C@@H]2CCCN(c3cnc(C(N)=O)c(Nc4ccc(C5(C)CCN(C[C@H]6CCN(c7ccc8c(c7)C(=O)N(C7CCC(=O)NC7=O)C8=O)C6)CC5)cc4)n3)C2)C1=O (stereo partly shown) [Compound 71] | 27 |  | 1 | 2 |  |  |  |  |  |  |  |  |  |  |  |  |
